Source: US5608095A, “Alkyl-4-silyl-phenols and esters thereof as antiatherosclerotic agents” (Hoechst Marion Roussel, Inc., priority 1996, dated 1997)
Like-named read-outs stand apart in the source and are kept apart here.

How the values were obtained:
[1] = test system: VCAM-1; test: Cell surface ELISA for VCAM-1 in human aortic smooth muscle cells (HASMC), interleukin-4 induced; type: cell-based; settings: 50 μm; for VCAM-1 (Avg.) % inh.: average of HSMC-1 to HSMC-3; for HSMC-1 % inh. of VCAM-1: experiment HSMC-1, interleukin-4, about 20 hr; for HSMC-2 % inh. of VCAM-1: experiment HSMC-2, interleukin-4, about 20 hr; for HSMC-3 % inh. of VCAM-1: experiment HSMC-3, interleukin-4, about 20 hr
Protocol: (§1) Cell Surface ELISA for VCAM-1/ICAM-1
(§2) Proliferating human umbilical vein endothelial cells (HUVEC) or human aortic smooth muscle cells (HASMC) from Clonetics (San Diego, Calif.) were plated onto 96-well plates in 100 μL medium per well at 20,000 cells per cm^2. The cultures were maintained in growth medium (EGM or SMGM2, Clonetics, San Diego, Calif.) for two days prior to addition of cytokines or drugs. Cytokines plus or minus compounds were added for 20 to 24 hours prior to analysis for adhesion molecule levels. Tumor necrosis factor (Genzyme, Cambridge, Mass.) was added to cultures at 500-1000 units/mL. Interleukin-4 (GIBCO-BRL, Gaithersburg, Md.) was added to cultures at 100-200 pg/mL. (Additions were made by transferring 100 [μL of cytokines plus compounds serially diluted on a separate 96-well plate into the plates containing cells. The medium on the cultures was not exchanged prior to addition of effectors). The culture medium was removed, and the monolayers were washed twice with Hanks buffered saline solution (HBSS) at room temperature. The primary antibody (anti-human VCAM-1 from Upstate Biotechnology, Inc., Lake Placid, N.Y. or anti-human ICAM-1 from Immunotech, Inc., Westbrook, Me.) was added to each well (1 μg/mL in HBSS plus 5% newborn calf serum, GIBCO-BRL, Gaithersburg, Md.) and incubated at 37° C. for 1 hr. The wells were washed twice with HBSS, then 100 μL of a 1/1000 dilution of goat anti-mouse IgG conjugated to horse radish peroxidase (BioRad, Hercules, Calif.) in HBSS plus 5% newborn calf serum was added to each well and incubated for 1 hr at 37° C. The wells were washed three times with HBSS, then 100 μL of TMB substrate (BioRad, Hercules, Calif.) was added to each well. The reaction was stopped after blue color developed by addition of 50 μL of 1N H2 SO4. Absorbance is measured at 450 nm with a plate reader. IC50 values were determined from curves of absorbance values obtained from serial dilutions of compounds (dissolved in dimethyl sulfoxide).
(§3) The IC50 value is defined as the drug concentration that inhibits the cytokine-induced adhesion molecule expression by 50%. Maximal values for adhesion molecule expression in cytokine-induced cultures was […] the basal level of adhesion molecule expression (minus cytokines) in the cultures to determine the level of induction. […] Each drug concentration was tested in quadruplicate wells. Single point tests of compounds at 50 μM were assayed as described for IC50 determinations, except that the data represent the level of inhibition without correction for basal expression. (Basal adhesion molecule expression was 10-20% of the total induced expression). Table 1 summarizes the ability of various compounds of this invention to inhibit VCAM-1 using human aortic smooth muscle cells (HASMC). In these experiments, the cells were coincubated with interleukin-4 and the compounds listed about 20 hr before assaying cell surface VCAM-1 levels. Each column represents a separate experiment.

[2] = test system: VCAM-1; test: Cell surface ELISA for VCAM-1 in human umbilical vein endothelial cells (HUVEC), TNF-alpha induced; type: cell-based; settings: 50 μM, average of three runs
Protocol: as §1, §2, §3
(§4) In these experiments, the cells were coincubated with tumor necrosis factor-alpha along with the indicated compounds about 20 to 24 hr before assaying cell surface adhesion molecule expression.

[3] = test system: ICAM-1; test: Cell surface ELISA for ICAM-1 in human umbilical vein endothelial cells (HUVEC), TNF-alpha induced; type: cell-based; settings: 50 μM, average of two runs, numbers in parentheses represent negative values
Protocol: as §1, §2, §3, §4

[4] = Food consumption, body and liver weight in cholesterol-fed rabbits; type: in vivo, female New Zealand White rabbits; settings: diet 0.26%, 7 days
Protocol: (§5) Five independent experiments were performed in the following manner. […] Female New Zealand White rabbits (Hazelton, ~2.0-2.3 kg) were fed 0.2% cholesterol enriched rabbit chow (Purina #5322) with or without 0.4% MDL compound (except, MDL 108,804 at 0.26% and MDL 103,491 repeated at 0.6%). The MDL compounds were solubilized in 100% ethanol. MDL 108,208 was not soluble in 100% ethanol, but it was soluble in diethyl ether:ethanol (3:2 by volume). The chow was sprayed with the MDL mixtures and allowed to dry overnight in a chemical fume hood. Control chow was sprayed with ethanol. Rabbits were fed 100 grams food per day for 7 days (0.6% MDL 103,491 were fed for 14 days); water was available ad libitum. On day 7, rabbits (fasted overnight) were bled (~2 mL) from marginal ear vein; 0.6% MDL 103,491 treated rabbits were tested on day 14. They were euthanized by carbon dioxide overdose. The total body and liver weights were recorded in grams. Food consumption was recorded as grams.cndot.day^-1 .cndot.rabbit^-1. Aliquots of fresh serum were used for clinical chemistries, lipoprotein cholesterol determination, thiobarbituric acid reactive substances (TBARS) and compound and metabolite concentrations in serum. Livers (~5 gram aliquots) were frozen at -20° C. for compound and metabolite concentration determination at a later time.

[5] = HPLC quantitation of compound and metabolite concentration in rabbit serum and liver; type: in vivo, female New Zealand White rabbits; settings: diet 0.26%, 7 days
Protocol: as §5
Serum and liver concentrations of parent compounds and the metabolites, bisphenol and diphenoquinone, were determined by reverse phase HPLC using a Waters 990 Powerline system. Livers (1 gram) were homogenized with 5.0 mL PBS, pH 7.4, using a Polytron tissue homogenizer at setting 5 for 20-30 seconds. Serum or liver homogenates were extracted as follows: 100 μL of either serum or homogenate were added to 2.0 mL diethyl ether:ethanol (3:1) while vortexing the tube. The sample tubes were capped and centrifuged for 10 min at 5° C. at 3500 rpm in a Beckman GPKR centrifuge with a GH 3.7 rotor. The supernatants were transferred to clean tubes and dried under N2. Samples were reconstituted with 200 μL of acetonitrile:hexane:0.1M ammonium acetate (90:6.5:3.5, by vol.). Then, 100 μL were injected onto a Waters Deltapak C18-300 Å column, and eluted with an 83% acetonitrile:17% water mobile phase at a flow rate of 1.5 mL/min. Absrobances at the wavelengths of 240, 254, and 420 nm were recorded. Compound concentrations were calculated from known quantities of authentic parent compounds after correction for recovery; the range of recovery from spiked samples was 40 to 100%. The lowest detectable limit for this class of compounds was ~0.5 μg/mL. Concentrations were calculated as μg/mL of serum and μg/g of liver.

[6] = test system: serum cholesterol, LDL, HDL, triglycerides; test: Serum lipids and lipoprotein cholesterol in cholesterol-fed female New Zealand White rabbits; type: in vivo; settings: Oryctolagus cuniculus, po, 168 h, rabbit serum, diet 0.26%, 7 days
Protocol: as §5
Blood was allowed to clot at room temperature for 30 minutes. Serum was obtained after centrifugation for 10 min at 5° C. at 3000 rpm in a Beckman GPKR centrifuge with a GH rotor. Fresh serum was analyzed by a COBAS MIRA autoanalyzer (Roche Diagnostics) using Roche diagnostic reagents for total cholesterol (CHOL, kit #44334) and triglyceride (TG, kit #44120). Cholesterol and triglycerides were calculated as mg/dL.
Lipoprotein fractions (very low density lipoprotein, VLDL, low density lipoprotein, LDL and high density lipoprotein, HDL) were separated on a Sepharose 6HR column (1×30 cm, Pharmacia) attached to a Waters Powerline HPLC system. Fifty μL of serum were injected onto the column and eluted with phosphate buffered saline, pH 7.4, at a flow rate of 0.5 mL/min. Cholesterol reagent (Roche Diagnostics, kit #44334, diluted with 20 mL water and then with 20 mL of 0.9% saline) was added at 0.2 mL/min to the post column eluant and incubated in a knitted PFTE Kratos reaction coil (Applied Biosystems) at 37° C. for 5 min. Absorbance was measured at 500 nm. The lipoprotein subfractions were quantitated as follows: [formula]

[7] = test system: oxidation of serum lipids; test: TBARS assay, serum of cholesterol-fed rabbits; type: in vivo, female New Zealand White rabbits; settings: Oryctolagus cuniculus, po, 168 h; rabbit serum, diet 0.26%, 7 days; read-out: TBARS, percent of control
Protocol: as §5
TBARS are a qualitative indication of the oxidation of lipids in a sample. In this assay the oxidation of serum lipids is initiated with CuSO4, resulting in the formation of aldehydes, such as malondialdehyde (MDA). Upon incubation with thiobarbituric acid, the absorbance of the aldehydes can be detected at 530-540 nm. TBARS values which are lower than control serum values indicate the relative ability of a compound to inhibit the oxidation. TBARS were measured as follows: 50 μL of serum were mixed with 50 μL of 0.9% saline and 400 μL of a 5 mM CuSO4 solution and incubated at 37° C. for 5 hr. The reactions were stopped by addition of 1.0 mL of 20% trichloroacetic acid. Then 1.0 mL of 0.67% thiobarbituric acid in 0.05N sodium hydroxide was added, mixed, and the samples incubated for 30 min at 90° C. Samples were centrifuged briefly to pellet undissolved material, and the supernatants were transferred to a 96-well microtiter plate. Absorbances were measured at 540 nm using a Biotek model EL311 microplate reader. The nmoles of MDA produced were calculated from a standard curve of 0 to 10 nmoles of MDA prepared from malonaldehyde bis(dimethylacetal). Serum samples from treated rabbits were compared to serum samples from control rabbits that received no MDL compound.

SMILES	VCAM-1 (Avg.) % inh. [1]	HSMC-1 % inh. of VCAM-1 [1]	HSMC-2 % inh. of VCAM-1 [1]	HSMC-3 % inh. of VCAM-1 [1]	VCAM-1 % inh. [2]	ICAM-1 % inh. [3]	food (grams eaten per day per rabbit), percent of control [4]	body wt., percent of control ([4]; rabbit)	lw/bw (liver weight/body weight), percent of control ([4]; rabbit)	Liver Parent = parent compound concentration ([5]; rabbit liver)	Serum Parent = parent compound concentration ([5]; rabbit serum)	response vs control in vivo at 0.26 % ([6]; read-out: HDL cholesterol, percent of control)	response vs control in vivo at 0.26 % ([6]; read-out: LDL cholesterol, percent of control)	response vs control in vivo at 0.26 % ([6]; read-out: TRIG (triglycerides), percent of control)	response vs control in vivo at 0.26 % ([6]; read-out: chol tot. (total cholesterol), percent of control)	response vs control in vivo at 0.26 % [7]
Cc1cc(O)c(C)c(C)c1OC[Si](C)(C)c1ccccc1 [MDL 103,653, 2,3,5-Trimethyl-4-[(dimethylphenylsilyl)methyloxy]phenol]	56.4%	63.1%	54.0%	52.0%	37.7%	78.5%										
CC(C)(C)c1cc(SC[Si](C)(C)C)cc(C(C)(C)C)c1OC(=O)CCC(=O)O [MDL 104,863, 2,6-Di-t-butyl-4-[(trimethylsilyl)methylthio]phenol succinic acid ester]	54.8%	56.5%	52.0%	56.0%	44.3%	53%										
CC(C)(C)c1cc(OC[Si](C)(C)Cc2ccccc2)ccc1O [MDL 108,804, 2-t-butyl-4-[(dimethylbenzylsilyl)methyloxy]phenol]							100%	101%	96%	0 µg/g	0 µg/mL	109%	82%	143%	91%	49%
